Test results from patent EP4818168A1, “FUSED RING COMPOUND, PHARMACEUTICAL COMPOSITION THEREOF AND USE THEREOF” (priority 2023, dated 2025).
Where two headings read alike, the source gives them in different places.

How the values were obtained:
Type in all cases: cell-based
HCC1806 cells = assay: CTG assay of compound inhibition on cell viability (HCC1806 cells); conditions: Homo sapiens, read-out: IC50 in HCC1806 Cells
Method: CellTiter-Glo (CTG) is a rapid cell viability test method based on ATP detection. […] Adenosine triphosphate (ATP) participates in various enzymatic reactions in organisms and is an indicator of living cell metabolism. Its content directly reflects the number of living cells and cell status. During the experiment, equal volume of CTG reagent is added to the cultured cells to measure the luminescence value. The chemiluminescent signal value is proportional to the amount of ATP, thus reflecting the number of viable cells. Therefore, cell viability can be obtained by detecting the ATP content. Compounds that affect cell viability will inhibit cell viability in a concentration-dependent manner, allowing a curve to be fitted to obtain the IC50 value.
The experimental procedure is as follows: • 11. Place the cell suspension in a 15 mL centrifuge tube, centrifuge at 1000 rpm for 5 min at room temperature, discard the supernatant, and collect the cell pellet. • 12. Resuspend the cell pellet with preheated complete cell culture medium (RPMI1640+10%FBS+1%PS), and use a Countess® automated cell counter to detect cell viability and density. The cell viability must be above 90%. • 13. […] Transfer the compound solution to a 96-well plate seeded with cells (final concentration of DMSO 0.1%), and place in a cell incubator at 37°C, 5% CO2 for 6 days. • 15. […] Protect from light during the whole process. Perform optical signal readings using a SpectraMax i3x reader. • 16. Data analysis: Remaining activity (%) = 100% * (1 - ((LumDMSO - Lummedium) - Lumsample) / (LumDMSO - LumPBS/medium)). Use GraphPad Prism 9.0 software to draw an S-shaped dose-survival rate curve and calculate the IC50 value using a nonlinear regression model.

AURKA = target: T1, AURKA (Homo sapiens, UniProt O14965)
T1 construct: endogenous in cells; host or cells: Jurkat cells
T1 sequence (O14965 1-403): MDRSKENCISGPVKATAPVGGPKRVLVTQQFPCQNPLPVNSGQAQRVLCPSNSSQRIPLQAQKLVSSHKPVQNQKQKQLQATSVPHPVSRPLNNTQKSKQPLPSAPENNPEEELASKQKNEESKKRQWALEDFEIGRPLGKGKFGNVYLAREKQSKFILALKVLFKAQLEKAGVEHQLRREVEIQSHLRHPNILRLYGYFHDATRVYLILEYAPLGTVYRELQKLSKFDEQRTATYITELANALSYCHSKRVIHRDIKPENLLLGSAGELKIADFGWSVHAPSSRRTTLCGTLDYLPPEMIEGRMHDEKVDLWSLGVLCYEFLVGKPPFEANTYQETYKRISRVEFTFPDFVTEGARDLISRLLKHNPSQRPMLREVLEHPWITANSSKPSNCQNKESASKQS
In short: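 Jurkat cells seeded at 1×10^6 cells/500 µL and treated with compound; lysates run on SDS-PAGE, blotted to nitrocellulose and probed overnight at 4°C for AURKA. Chemiluminescent or fluorescent band intensity fitted to a curve to give DC50 for protein degradation.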

H82 cells = assay: cells; conditions: Homo sapiens
In short: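 H82 cells in RPMI1640 + 10% FBS exposed to compound (0.1% DMSO final) for 6 days at 37 °C, 5% CO2. Viability read by CellTiter-Glo ATP luminescence, normalised to DMSO and medium controls; IC50 from nonlinear regression of the dose–survival curve.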

[1] = 144 h, HCC1806 cells, 6 days, CellTiter-Glo
[2] = 100 nM compound, Jurkat cells, 24 h, Table 1
[3] = 1 µM compound, Jurkat cells, 24 h, Table 1
[4] = NCI-H82, H82 cells, 4000 cells/well, CellTiter-Glo, read-out: IC50 in H82 Cells
[5] = 100 nM compound, Jurkat cells, 24 h, Table 2
[6] = 1 µM compound, Jurkat cells, 24 h, Table 2
[7] = NCI-H82, read-out: IC50 in H82 Cells

SMILES	IC50 (HCC1806 cells; HCC1806, 144 h)	Percentage of AURKA Degradation Induced by 100 nM Compound in Jurkat Cells (AURKA; [2])	Percentage of AURKA Degradation Induced by 1 µM Compound in Jurkat Cells (AURKA; [3])	IC50 (H82 cells; [4])	Percentage of AURKA Degradation Induced by 100 nM Compound in Jurkat Cells (AURKA; [5])	Percentage of AURKA Degradation Induced by 1 µM Compound in Jurkat Cells (AURKA; [6])	further results
COc1cc(Nc2ncc3c(n2)-c2ccc(Cl)cc2C(c2c(F)cccc2OC)=NC3)ccc1C(=O)N[C@H]1C[C@H](C#Cc2cccc3c2CN(C2CCC(=O)NC2=O)C3=O)C1 (relative stereo) [Compound A7]	1 to 10 µM						Percentage of AURKA Degradation Induced by 100 nM Compound in Jurkat Cells (AURKA): ++ (key: +: Degradation ≤ 30%; ++: 30% < Degradation ≤ 70%; +++: Degradation > 70%); Percentage of AURKA Degradation Induced by 1 µM Compound in Jurkat Cells (AURKA): ++ (key: +: Degradation ≤ 30%; ++: 30% < Degradation ≤ 70%; +++: Degradation > 70%)
O=C1CCC(N2C(=O)c3cccc(NCCOCCNC(=O)c4ccc(Nc5ncc6c(n5)-c5ccc(Cl)cc5C(c5c(F)cccc5F)=NC6)cc4)c3C2=O)C(=O)N1 (centres unmarked) [Compound A1]		++ (30% < Degradation ≤ 70%)	++ (30% < Degradation ≤ 70%)				IC50 (HCC1806 cells; [1]): < 1 µM
COc1cc(Nc2ncc3c(n2)-c2ccc(Cl)cc2C(c2c(F)cccc2OC)=NC3)ccc1C(=O)N(C)CCCCCNc1cccc2c1C(=O)N(C1CCC(=O)NC1=O)C2=O (centres unmarked) [Compound A2]		++ (30% < Degradation ≤ 70%)	++ (30% < Degradation ≤ 70%)				IC50 (HCC1806 cells; [1]): < 1 µM
COc1cc(Nc2ncc3c(n2)-c2ccc(Cl)cc2C(c2c(F)cccc2OC)=NC3)ccc1C(=O)NC1CN(CCOc2cccc3c2C(=O)N(C2CCC(=O)NC2=O)C3=O)C1 (centres unmarked) [Compound A5]		++ (30% < Degradation ≤ 70%)	++ (30% < Degradation ≤ 70%)				IC50 (HCC1806 cells; [1]): < 1 µM
COc1cc(Nc2ncc3c(n2)-c2ccc(Cl)cc2C(c2c(F)cccc2OC)=NC3)ccc1C(=O)NCCN1CCN(c2ccc(N3CCC(=O)NC3=O)cc2)CC1 [Compound A8]		+++ (Degradation > 70%)	+++ (Degradation > 70%)				IC50 (HCC1806 cells; [1]): < 1 µM
O=C1CCN(c2ccc(N3CCN(CCNC(=O)c4ccc(Nc5ncc6c(n5)-c5ccc(Cl)cc5C(c5c(F)cccc5F)=NC6)cc4)CC3)cc2)C(=O)N1 [Compound A10]	< 1 µM	++ (30% < Degradation ≤ 70%)	++ (30% < Degradation ≤ 70%)				
CN(CCN1CCN(c2ccc(N3CCC(=O)NC3=O)cc2)CC1)C(=O)c1ccc(Nc2ncc3c(n2)-c2ccc(Cl)cc2C(c2c(F)cccc2F)=NC3)cc1 [Compound A11]	< 1 µM	+++ (Degradation > 70%)	++ (30% < Degradation ≤ 70%)				
O=C1CCN(c2ccc(N3CCC(CNC(=O)c4ccc(Nc5ncc6c(n5)-c5ccc(Cl)cc5C(c5c(F)cccc5F)=NC6)cc4)CC3)cc2)C(=O)N1 [Compound A12]	< 1 µM	+ (Degradation ≤ 30%)	+ (Degradation ≤ 30%)				
COc1cc(Nc2ncc3c(n2)-c2ccc(Cl)cc2C(c2c(F)cccc2OC)=NC3)ccc1C(=O)NCCN1CCC(c2ccc(N3CCC(=O)NC3=O)cc2)CC1 [Compound A15]	< 1 µM	+++ (Degradation > 70%)	+++ (Degradation > 70%)				
COc1cc(Nc2ncc3c(n2)-c2ccc(Cl)cc2C(c2c(F)cccc2OC)=NC3)ccc1C(=O)NCCN1CCC(c2ccc(N3CCC(=O)NC3=O)cn2)CC1 [Compound A16]	< 1 µM	+++ (Degradation > 70%)	++ (30% < Degradation ≤ 70%)				
COc1cc(Nc2ncc3c(n2)-c2ccc(Cl)cc2C(c2c(F)cccc2OC)=NC3)ccc1C(=O)NC1CC(C#Cc2cccc(N3CCC(=O)NC3=O)c2)C1 (centres unmarked) [Compound A50]	< 1 µM						
O=C1CCN(c2cccc(C#CC34CC(NC(=O)c5ccc(Nc6ncc7c(n6)-c6ccc(Cl)cc6C(c6c(F)cccc6F)=NC7)cc5)(C3)C4)c2)C(=O)N1 [Compound A76]	1 to 10 µM						
O=C1CCN(c2ccc(N3CCC(N4C5COCC4CN(c4ccc(Nc6ncc7c(n6)-c6ccc(Cl)cc6C(c6c(F)cccc6F)=NC7)cc4)C5)CC3)nc2)C(=O)N1 [Compound A357]				< 1 µM	++ (30% < Degradation ≤ 70%)	+ (Degradation ≤ 30%)	
O=C1CCN(c2ccc(N3CC4COCC(C3)N4CC3CN(c4ccc(Nc5ncc6c(n5)-c5ccc(Cl)cc5C(c5c(F)cccc5F)=NC6)cc4)C3)nc2)C(=O)N1 [Compound A358]				< 1 µM	+++ (Degradation > 70%)	+++ (Degradation > 70%)	
O=C1CCN(c2ccc(N3CC4COCC(C3)N4CC3CCN(c4ccc(Nc5ncc6c(n5)-c5ccc(Cl)cc5C(c5c(F)cccc5F)=NC6)cc4)CC3)nc2)C(=O)N1 [Compound A359]				< 1 µM	+++ (Degradation > 70%)	+++ (Degradation > 70%)	
O=C1CCN(c2ccc(N3CC4COCC(C3)N4C3CC4(CCN(c5ccc(Nc6ncc7c(n6)-c6ccc(Cl)cc6C(c6c(F)cccc6F)=NC7)cc5)CC4)C3)nc2)C(=O)N1 [Compound A360]				< 1 µM	+++ (Degradation > 70%)	+++ (Degradation > 70%)	
O=C1CCN(c2ccc(N3CCC4(CC3)CC(N3CCN(C56CC(Nc7ncc8c(n7)-c7ccc(Cl)cc7C(c7c(F)cccc7F)=NC8)(C5)C6)CC3)CO4)nc2)C(=O)N1 (centres unmarked) [Compound A361]				< 1 µM	+++ (Degradation > 70%)	+++ (Degradation > 70%)	
Cn1nc(N2CCC(=O)NC2=O)c2ccc(N3CC4COCC(C3)N4C3CCN(c4ccc(Nc5ncc6c(n5)-c5ccc(Cl)cc5C(c5c(F)cccc5F)=NC6)cc4)CC3)cc21 [Compound A362]					+++ (Degradation > 70%)	++ (30% < Degradation ≤ 70%)	IC50 (H82 cells; [7]): < 1 µM
COc1cccc(F)c1C1=NCc2cnc(Nc3ccc(N4CCN(C5COC6(CCN(c7ccc(N8CCC(=O)NC8=O)cn7)CC6)C5)CC4)cc3)nc2-c2ccc(Cl)cc21 (centres unmarked) [Compound A363]				< 1 µM	+++ (Degradation > 70%)	+++ (Degradation > 70%)	
Cn1nc(N2CCC(=O)NC2=O)c2cccc(N3CCC4(CC3)CC(N3CCN(c5ccc(Nc6ncc7c(n6)-c6ccc(Cl)cc6C(c6c(F)cccc6F)=NC7)cc5)CC3)CO4)c21 (centres unmarked) [Compound A364]					+++ (Degradation > 70%)	+++ (Degradation > 70%)	IC50 (H82 cells; [7]): < 1 µM
Cn1nc(N2CCC(=O)NC2=O)c2ccc(N3CCC4(CC3)CC(N3CCN(c5ccc(Nc6ncc7c(n6)-c6ccc(Cl)cc6C(c6c(F)cccc6F)=NC7)cc5)CC3)CO4)cc21 (centres unmarked) [Compound A365]				< 1 µM	+++ (Degradation > 70%)	+++ (Degradation > 70%)	
